Data taken from US8470859B2, “Iminopyridine derivative and use thereof” (Takeda Pharmaceutical Company Limited, priority 2006, dated 2013).
Where a name gives a salt, the structure may show the parent alone. Read-outs that look alike come from different tables or passages of the source.

Assays:
[1] = tested on: isolated bladder muscle of BOO model rat; experiment: Effect of various drugs on α1 receptor stimulation-induced contraction of isolated bladder muscle of bladder outlet obstruction (BOO) model rat; conditions: phenylephrine 3 μmol/L; for IC50: Rattus norvegicus, 0.5 h, concentration inhibiting the average tension by 50%, read-out: Inhibitory effect on phenylephrine-induced contraction IC50 (average method); for IC50 / Inhibitory effect on phenylephrine-induced contraction IC30 (stddev method): cumulative treatment, 3 concentrations, 30 min intervals; for Inhibitory effect on phenylephrine-induced contraction IC30 (stddev method): concentration inhibiting the sustained, rhythmic contractile responses by 30%
Experimental: Effect of Various Drugs on α1 Receptor Stimulation-Induced Contraction of Isolated Bladder Muscle of Bladder Outlet Obstruction (BOO) Model Rat
• (i) Seven-week-old male Wistar rats (CLEA Japan, Inc., Tokyo) were used. BOO rat was prepared according to publications (Hashimoto T, Nagabukuro H and Doi T: Effects of the selective acetylcholinesterase inhibitor TAK-802 on the voiding behavior and bladder mass increase in rats with partial bladder outlet obstruction. J Urol. 174: 1137-41., 2005.). After pentobarbital (50 mg/kg i.p., Dainippon Sumitomo Pharma Co., Ltd., Osaka) anesthesia, a lower middle abdominal incision was made to expose the bladder. The prostate was detached, the urethra was ligated along with a glass rod having an outer diameter of 1.2 mm, and the glass rod was removed to prepare partial obstruction of the urethra. After the surgery, the abdomen was sutured, and penicillin (2000 IU/rat, penicillin G potassium, MEIJI SEIKA KAISHA, LTD., Tokyo) was subcutaneously administered. An animal after 2 to 4 weeks from obstruction surgery was used. • (ii) Contractile Responses of Isolated Bladder Muscle (1) Preparation of Bladder Muscle Specimen
BOO model rat was sacrificed by decaptation, and the bladder was isolated. Muscle strips (length 7-10 mm, width about 3 mm) in the longitudinal direction were prepared from the bladder except bladder trigone (4-6 specimen from each bladder).
The prepared bladder muscle specimens were hung in a Magnus bath aerated with 95% O2-5% CO2 gas and filled with modified Krebs solution. The contraction tension was measured by an isometric strain transducer (TSD125C, Biopac systems, Santa Barbara, Calif., USA) and recorded in the hard disc of PC (ThinkCentre, IBM, USA) via an amplifier (DA100C, Biopac systems) and a multichannel data analysis apparatus (MP100A-CE, Biopac systems). For uptaking the data, a dedicated software (Acqknowledge 3.8.1., Biopac systems) was used and the sampling interval was set to 0.2 second (5 Hz). The specimens were hung with a load of about 1 g and, after an equilibration time of 1 hr or longer, the following experiment was performed.
The specimens were treated with phenylephrine (3 μmol/L) to induce contraction. After the contractile response was stabilized (>20 min), the specimens were cumulatively treated 3 times with a drug at a 10-fold common ratio and 30 min intervals, and the variation in the tension was observed.
The variation in the tension due to α1 receptor stimulation was evaluated by the two methods shown below [average method and standard deviation (Stddev) method].
The average tension for one minute was measured immediately before phenylephrine treatment and after the contraction was stabilized after the treatment (immediately before completion of about 20 min observation time), and the difference was taken as 100%. The average tension for one minute was measured immediately before completion of observation time (30 min) after treatment with a drug at each concentration, and the inhibition rate of the drug at each concentration was calculated. In the vehicle treatment group, the variation rate of phenylephrine-induced contraction was calculated every time the specimens were treated 3 times with lo the solvent, and the inhibition rate of the drug at each concentration was adjusted based on the variation rate of the corresponding vehicle treatment group. The concentration (IC50) necessary for inhibiting the average tension by 50% by preclinical package (SAS Institute Japan, Ver. 5.0) was calculated based on the inhibition rate at each concentration.
The standard deviation was measured immediately before phenylephrine treatment and for 5 min after the contraction was stabilized after treatment (immediately before completion of the about 20 min observation time) and the difference was taken as 100%. […]

[2] = molecular target: T1, human adrenaline α1D receptor (Homo sapiens, UniProt P25100); experiment: Measurement of α1D receptor binding inhibitory activity ([3H]prazosin binding to membrane fraction of CHO-K1 cells expressing the receptor); conditions: read-out: binding inhibitory rate (%) (α1D receptor binding inhibitory rate at 1 μM)
T1 construct: expressed in transfected cells; membrane fraction used
T1 sequence (P25100 1-572): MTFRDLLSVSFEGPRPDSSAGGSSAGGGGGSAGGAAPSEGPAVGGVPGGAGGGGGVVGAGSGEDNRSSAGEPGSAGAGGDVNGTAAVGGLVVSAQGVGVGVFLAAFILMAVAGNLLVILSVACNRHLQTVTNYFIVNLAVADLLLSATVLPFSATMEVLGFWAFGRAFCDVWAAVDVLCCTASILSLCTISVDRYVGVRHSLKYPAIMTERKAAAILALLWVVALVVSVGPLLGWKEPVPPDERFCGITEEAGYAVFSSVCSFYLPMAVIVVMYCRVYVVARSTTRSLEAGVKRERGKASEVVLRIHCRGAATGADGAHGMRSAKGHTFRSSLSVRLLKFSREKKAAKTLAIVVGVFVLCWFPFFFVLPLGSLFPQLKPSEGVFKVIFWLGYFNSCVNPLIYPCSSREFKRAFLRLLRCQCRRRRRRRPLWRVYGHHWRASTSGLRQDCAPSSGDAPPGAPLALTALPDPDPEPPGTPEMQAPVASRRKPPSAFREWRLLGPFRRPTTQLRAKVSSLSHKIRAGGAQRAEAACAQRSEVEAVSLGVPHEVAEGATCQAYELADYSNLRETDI
Experimental: Measurement of α1D Receptor Binding Inhibitory Activity
Genetic manipulation methods described below are based on the methods described in Maniatis et al., Molecular Cloning, Cold Spring Harbor Laboratory, 1989, the protocol appended to a reagent and the like. • (i) Preparation of Human Adrenaline α1D Receptor Expression Plasmid
Adrenaline α1D receptor gene was cloned from human […] CDNA by the PCR method. PCR reaction was performed by Gene Amp PCR System 9700 (Applied Biosystems) with […] each of the primer set 5′-[…]-3′ [SEQ ID NO: 1] and 5′-[…]-3′ [SEQ ID NO: 2] prepared in reference to the base sequence of the adrenaline α1D receptor gene reported by DEBRA A. et al. (J. Pharamacol. Exp. Ter., 272, 134-142 (1995)), 200 ng of human brain hippocampus cDNA library (Takara Shuzo Co., Ltd.) as a template and TaKaRa LA-Taq DNA Polymerase (Takara Shuzo Co., Ltd.) (reaction conditions: 45 cycles of 94° C. for 15 sec, 68° C. for 3.5 min).
The PCR fragment obtained above was digested with restriction enzymes NheI (Takara Shuzo Co., Ltd.) and Kpn I (Takara Shuzo Co., Ltd.) and applied to agarose gel electrophoresis to recover DNA fragments. The DNA fragments was ligated with animal cell expression plasmid, pcDNA3.1/Zeo (Invitrogen) digested with NheI and Kpn I, by DNA Ligation Kit Ver.2 (Takara Shuzo Co., Ltd.), and transformed the competent cells of Escherichia coli JM109 to obtain plasmid, pcDNA3. 1/Zeo-Adreα1D. • (ii) Introduction of Human Adrenaline α1D Receptor Expression Plasmid into CHO-K1 Cells and Preparation of Membrane Fraction
CHO-K1 cells passage cultured in HmF12 medium (Invitrogen) containing 10% fetal bovine serum (TRACE SCIENCETIFIC) in a 150 cm^2 culture flask (Corning Coaster) were detached with 0.5 g/L trypsin-0.2 g/L EDTA (Invitrogen), and the cells were washed with D-PBS(−) (Invitrogen) and centrifuged (1000 rpm, 5 min). Then, using Gene Pulser II (BioRad), DNA was introduced into the cells under the following conditions. 1×10^7 cells suspended in D-PBS(−) (700 μl) and 10 μg of pcDNA3.1/Zeo-Adreα1D were added in a 0.4 cm gap cuvette (BioRad), and electroporation was performed under voltage 0.25 kV, capacitance 960 μF. The cells were cultured in HamF12 medium containing 10% fetal bovine serum and 250 μg/mL Zeocin (Invitrogen) and the Zeocin resistance clones were selected.
Plurality of Zeocin resistance clones were selected and cultured in a cell culture flask (150 cm^2) until semiconfluent, and the cellular membrane fraction was prepared as follows.
The semiconfluent cells were detached with 0.02% EDTA containing D-PBS(−) and recovered by centrifugation. The cells were suspended in membrane preparation buffer (10 mM NaHCO3 pH 7.4, protease inhibitor cocktail (Roche)) and disrupted by 3 times of treatment in a polytron homogenizer (model PT-3100, KINEMATICA AG) at 20000 rpm for 20 seconds. After disruption, the cells were centrifuged at 2000 rpm for 10 min and the supernatant containing membrane fractions was obtained. The supernatant was centrifuged using an ultracentrifuge (model L8-70M, rotor 70 Ti, Beckman Instruments) at 30000 rpm for 1 hr to obtain a precipitate containing membrane fractions. The obtained membrane fraction of each clone was subjected to the binding experiment shown below.
The membrane fraction (20 μg/well) [^3H] prazosin (2.5 nM, PerkinElmer Lifescience), as a ligand, were diluted with a binding assay buffer (50 mM Tris-HCl, 10 mM MgCl2, 0.5% BSA, protease inhibitor cocktail pH 7.5) and added to a 96 well microplate, and reacted at room temperature for 1 hr. For the measurement of non-specific binding, phentolamine (Sigma) was further added to 10 μM. Then, the reaction mixture was filtered and transferred to unifilter GF/C (PerkinElmer Lifescience) by using a cell harvester (PerkinElmer Lifescience). The filter was washed 3 times with ice-cooled 50 mM Tris buffer (pH 7.5). […]

[3] = compound at 1 μM, [3H] prazosin 2.5 nM, membrane fraction 20 μg/well

Structure (SMILES)	inhibition at 1 µM [2, 3] [%]	further results
COc1ccccc1N1CCN(CCN2C(=O)CC3(CCCC3)CC2=O)CC1 [BMY 7378]	–	IC50 [1]: 270 nM; effect on the rhythmic contractile response induced by phenylephrine (average method and Stddev method), in words [1]: inhibited; Inhibitory effect on phenylephrine-induced contraction IC30 (stddev method) [1]: 89 nM
N=c1c(C(N)=O)cc(Cl)cn1Cc1cccc(Cl)c1 [Example 19, 5-chloro-1-(3-chlorobenzyl)-2-imino-1,2-dihydropyridine-3-carboxamide]	99.1	–
N=c1c(C(N)=O)cc(Cl)cn1Cc1ccc(Cl)c(Cl)c1 [Example 20, 5-chloro-1-(3,4-dichlorobenzyl)-2-imino-1,2-dihydropyridine-3-carboxamide]	100	–
N=c1c(C(N)=O)cc(Cl)cn1CCc1ccccc1 [Example 23, 5-chloro-2-imino-1-(2-phenylethyl)-1,2-dihydropyridine-3-carboxamide]	81.8	–
N=c1c(C(N)=O)cc(Cl)cn1CC1CCCCC1 [Example 26, 5-chloro-1-(cyclohexylmethyl)-2-imino-1,2-dihydropyridine-3-carboxamide]	75.7	–
N=c1c(C(N)=O)cc(Cl)cn1C1CCc2ccccc21 (stereo not drawn) [Example 32, 5-chloro-1-(2,3-dihydro-1H-inden-1-yl)-2-imino-1,2-dihydropyridine-3-carboxamide]	93.9	–
CS(=O)(=O)c1cc(Cl)ccc1Cn1cc(Cl)cc(C(N)=O)c1=N [Example 149, 5-chloro-1-[4-chloro-2-(methylsulfonyl)benzyl]-2-imino-1,2-dihydropyridine-3-carboxamide hydrobromide]	96	–
N#Cc1cc(C(N)=O)c(=N)n(Cc2cccc(Cl)c2)c1 [Example 151, 1-(3-chlorobenzyl)-5-cyano-2-imino-1,2-dihydropyridine-3-carboxamide hydrobromide]	–	inhibition at 1 µM [2]: 69.5%
N#Cc1ccc(F)c(Cn2cc(Cl)cc(C(N)=O)c2=N)c1 [Example 156, 5-chloro-1-(5-cyano-2-fluorobenzyl)-2-imino-1,2-dihydropyridine-3-carboxamide hydrobromide]	91.8	–
C[C@H](c1ccccc1)n1cc(Cl)cc(C(N)=O)c1=N [Example 168, 5-chloro-2-imino-1-[(1R)-1-phenylethyl]-1,2-dihydropyridine-3-carboxamide hydrochloride]	94.7	–
N=c1c(C(N)=O)cc(Cl)cn1[C@@H]1CCc2ccccc21 [Example 169, 5-chloro-1-[(1R)-2,3-dihydro-1H-inden-1-yl]-2-imino-1,2-dihydropyridine-3-carboxamide hydrochloride]	100	–
N#Cc1cc(F)cc(Cn2cc(Cl)cc(C(N)=O)c2=N)c1 [Example 181, 5-chloro-1-(3-cyano-5-fluorobenzyl)-2-imino-1,2-dihydropyridine-3-carboxamide hydrobromide]	95.4	–
N#Cc1cc(Cl)cc(Cn2cc(Cl)cc(C(N)=O)c2=N)c1 [Example 182, 5-chloro-1-(3-chloro-5-cyanobenzyl)-2-imino-1,2-dihydropyridine-3-carboxamide hydrobromide]	99.2	–
COc1ccccc1N1CCN(CC(O)COc2cccc3ccccc23)CC1 (stereo not drawn) [Naftopidil]	–	IC50 [1]: 1500 nM; effect on the rhythmic contractile response induced by phenylephrine (average method and Stddev method), in words [1]: inhibited; Inhibitory effect on phenylephrine-induced contraction IC30 (stddev method) [1]: 3800 nM
CCOc1ccccc1OCCN[C@H](C)Cc1ccc(OC)c(S(N)(=O)=O)c1 [Tamsulosin, tamsulosin]	–	IC50 [1]: 34 nM; effect on the rhythmic contractile response induced by phenylephrine (average method and Stddev method), in words [1]: inhibited; Inhibitory effect on phenylephrine-induced contraction IC30 (stddev method) [1]: 9.4 nM
